Test results published in patent publication US12527739B2 (Alcon Inc., priority 2022, dated 2026).

Key:
M2 muscarinic receptor = biological target: T1, M2 muscarinic receptor (Homo sapiens, UniProt P08172); test: Muscarinic receptor radioligand displacement binding, M2
T1 sequence (P08172 1-466): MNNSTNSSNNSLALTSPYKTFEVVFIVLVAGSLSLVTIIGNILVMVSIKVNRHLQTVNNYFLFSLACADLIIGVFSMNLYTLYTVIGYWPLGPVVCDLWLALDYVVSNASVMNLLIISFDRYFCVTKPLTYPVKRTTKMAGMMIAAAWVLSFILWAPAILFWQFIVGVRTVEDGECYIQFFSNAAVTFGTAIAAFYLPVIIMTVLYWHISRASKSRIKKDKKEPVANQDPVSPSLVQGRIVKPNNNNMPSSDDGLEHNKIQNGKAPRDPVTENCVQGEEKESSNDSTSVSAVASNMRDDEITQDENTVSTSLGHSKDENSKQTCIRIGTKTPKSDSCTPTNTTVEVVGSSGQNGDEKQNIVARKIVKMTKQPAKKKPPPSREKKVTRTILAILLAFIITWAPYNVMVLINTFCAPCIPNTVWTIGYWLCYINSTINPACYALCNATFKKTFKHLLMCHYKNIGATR

M5 muscarinic receptor = biological target: T2, M5 muscarinic receptor (Homo sapiens, UniProt P08912); test: Muscarinic receptor radioligand displacement binding, M5
T2 sequence (P08912 1-532): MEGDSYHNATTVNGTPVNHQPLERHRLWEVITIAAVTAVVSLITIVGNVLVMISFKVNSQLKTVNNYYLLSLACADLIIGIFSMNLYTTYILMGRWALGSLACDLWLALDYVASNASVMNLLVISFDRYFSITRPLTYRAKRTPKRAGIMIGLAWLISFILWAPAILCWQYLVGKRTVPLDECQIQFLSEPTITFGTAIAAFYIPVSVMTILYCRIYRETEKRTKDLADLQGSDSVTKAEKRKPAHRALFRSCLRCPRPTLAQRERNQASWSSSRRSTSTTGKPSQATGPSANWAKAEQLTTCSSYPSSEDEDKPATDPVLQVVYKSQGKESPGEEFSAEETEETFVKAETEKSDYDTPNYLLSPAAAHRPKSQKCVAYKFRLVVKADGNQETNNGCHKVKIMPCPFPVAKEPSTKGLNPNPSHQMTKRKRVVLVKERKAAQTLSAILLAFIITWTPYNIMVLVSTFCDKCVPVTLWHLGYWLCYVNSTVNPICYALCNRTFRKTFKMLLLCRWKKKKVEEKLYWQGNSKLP

[1] = pH adjustment of methyl atropine and benzyl atropine solutions, HPLC analysis; format: physicochemical; details: for Actual concentration (HPLC) / pH after incubation (24 hours): after pH adjustment; for Initial pH: before pH adjustment

Question: What does the source list for CN1C2CCC1CC(OC(=O)C(CO)(Cc1ccccc1)c1ccccc1)C2 (racemic) [Benzyl Atropine, benzyl atropine]?
Answer: binding to the receptor (in words) (M2 muscarinic receptor): not to bind at all; binding to the receptor (in words) (M5 muscarinic receptor): not to bind at all; Actual concentration (HPLC) ([1]; 30 mM Phosphate Buffer, pH 7.4): 0.05 mg/g; pH after incubation (24 hours) ([1]; 30 mM Phosphate Buffer, pH 7.4): 6.23; Initial pH ([1]; 30 mM Phosphate Buffer, pH 7.4): 7.7; Actual concentration (HPLC) ([1]; Phosphate Buffered Saline): 0.04 mg/g; pH after incubation (24 hours) ([1]; Phosphate Buffered Saline): 5.7; Initial pH ([1]; Phosphate Buffered Saline): 7.7; dissolution upon pH adjustment (in words) ([1]; lowered pH of the vehicle): did not fully dissolve
